Assay results reported in patent US9023821B2, “Use of MicroRNA for treating diseases associated with a dysfunction of the cilia in multiciliated epithelial cells” (Centre National de la Recherche Scientifique, priority 2009, dated 2015).

Tests used:
[1] = test system: human airway epithelial cells (HAECs); assay: High-throughput sequencing (HTS) of miRNAs at four stages of differentiation of HAECs; details: for Modulation (ratio of the level of intensity of expression in log2 in two stages of differentiation) measured by high-throughput sequencing, D7 − D0 / Modulation (ratio of the level of intensity of expression in log2 in two stages of differentiation) measured by high-throughput sequencing, FC − D7 / Modulation (ratio of the level of intensity of expression in log2 in two stages of differentiation) measured by high-throughput sequencing, WD − D0 / Modulation (ratio of the level of intensity of expression in log2 in two stages of differentiation) measured by high-throughput sequencing, WD − FC / Level of intensity of expression in log2 measured by high-throughput sequencing, D0 / Level of intensity of expression in log2 measured by high-throughput sequencing, D7 / Level of intensity of expression in log2 measured by high-throughput sequencing, FC / Level of intensity of expression in log2 measured by high-throughput sequencing, WD: Table VI; for Level of intensity of expression in log2 At the differentiated stage (WD) measured in HTS: healthy human airway epithelial tissue; for Level of intensity of expression in log2 measured by high-throughput sequencing, D0: stage D0; for Level of intensity of expression in log2 measured by high-throughput sequencing, D7: stage D7; for Level of intensity of expression in log2 measured by high-throughput sequencing, FC: stage FC; for Level of intensity of expression in log2 At the differentiated stage (WD) measured in HTS / Level of intensity of expression in log2 measured by high-throughput sequencing, WD: stage WD
Procedure, shortened: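 Total RNA including small RNAs was taken from air-liquid interface cultures at ALI-D0, ALI-D7, ALI-FC (first cilia, ~14 days) and ALI-WD (~21 days). SOLiD small-RNA libraries were sequenced, and 5p/3p reads were normalized to 10^6 sequences and expressed as percentage abundance.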

[2] = test system: human airway epithelial cells (HAECs); assay: Agilent miRNA chips, miRNA expression at four stages of differentiation of HAECs; details: for Modulation (ratio of the level of intensity of expression in log2 in two stages of differentiation) measured with the Agilent chips, D7 − D0 / Modulation (ratio of the level of intensity of expression in log2 in two stages of differentiation) measured with the Agilent chips, FC − D7 / Modulation (ratio of the level of intensity of expression in log2 in two stages of differentiation) measured with the Agilent chips, WD − D0 / Modulation (ratio of the level of intensity of expression in log2 in two stages of differentiation) measured with the Agilent chips, WD − FC / Level of intensity of expression in log2 measured with the Agilent chips, D0 / Level of intensity of expression in log2 measured with the Agilent chips, D7 / Level of intensity of expression in log2 measured with the Agilent chips, FC / Level of intensity of expression in log2 measured with the Agilent chips, WD: Table VI; for Modulation (ratio of the level of intensity of expression in log2 at two stages of differentiation), FC − D7 / Modulation (ratio of the level of intensity of expression in log2 at two stages of differentiation), WD − FC: Agilent miRNA chips, Table V; for Level of intensity of expression in log2 measured with the Agilent chips, D0: stage D0; for Level of intensity of expression in log2 measured with the Agilent chips, D7: stage D7; for Level of intensity of expression in log2 measured with the Agilent chips, FC: stage FC; for Level of intensity of expression in log2 measured with the Agilent chips, WD: stage WD
Procedure, shortened: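 Arrays probing 866 human and 89 human viral miRNAs were used in parallel with sequencing. The same patients' RNA was labelled and hybridized following the manufacturer's protocol.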

[3] = test system: basal cells and pyramidal cells of the airway epithelium; assay: miRNA expression in sorted basal cells versus pyramidal cells (ciliated + secretory), HTS and Agilent chips; design: species or system human; details: for Modulation of expression of the miRNAs in pyramidal cells (323(−)) relative to basal cells 323(+): HTS and Agilent chips; for Intensity of the level of expression in log2 in pyramidal cells (323(−)): pyramidal cells (ciliated + secretory)
Procedure, shortened: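 miRNA repertoires measured by high-throughput sequencing or Agilent arrays on total RNA from sorted airway epithelial populations of 3 donors. Sorting used CD151-PE and anti-tissue factor-FITC: double-positive basal versus double-negative ciliated/secretory cells, with DAPI-stained and aggregated cells excluded.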

Substance | Modulation (ratio of the level of intensity of expression in log2 in two stages of differentiation) measured by high-throughput sequencing, D7 − D0 [1] | Modulation (ratio of the level of intensity of expression in log2 in two stages of differentiation) measured by high-throughput sequencing, FC − D7 [1] | Modulation (ratio of the level of intensity of expression in log2 in two stages of differentiation) measured by high-throughput sequencing, WD − D0 [1] | Modulation (ratio of the level of intensity of expression in log2 in two stages of differentiation) measured by high-throughput sequencing, WD − FC [1] | Level of intensity of expression in log2 At the differentiated stage (WD) measured in HTS [1] | Level of intensity of expression in log2 measured by high-throughput sequencing, D0 [1] | Level of intensity of expression in log2 measured by high-throughput sequencing, D7 [1] | Level of intensity of expression in log2 measured by high-throughput sequencing, FC [1] | Level of intensity of expression in log2 measured by high-throughput sequencing, WD [1] | Modulation (ratio of the level of intensity of expression in log2 in two stages of differentiation) measured with the Agilent chips, D7 − D0 [2] | Modulation (ratio of the level of intensity of expression in log2 at two stages of differentiation), FC − D7 [2] | Modulation (ratio of the level of intensity of expression in log2 in two stages of differentiation) measured with the Agilent chips, FC − D7 [2] | Modulation (ratio of the level of intensity of expression in log2 in two stages of differentiation) measured with the Agilent chips, WD − D0 [2] | Modulation (ratio of the level of intensity of expression in log2 at two stages of differentiation), WD − FC [2] | Modulation (ratio of the level of intensity of expression in log2 in two stages of differentiation) measured with the Agilent chips, WD − FC [2] | Level of intensity of expression in log2 measured with the Agilent chips, D0 [2] | Level of intensity of expression in log2 measured with the Agilent chips, D7 [2] | Level of intensity of expression in log2 measured with the Agilent chips, FC [2] | Level of intensity of expression in log2 measured with the Agilent chips, WD [2] | Modulation of expression of the miRNAs in pyramidal cells (323(−)) relative to basal cells 323(+) [3] | other results
hsa-miR-30b: human miRNA, SEQ ID No. 33 (UGUAAACAUCCUACACUCAGCU; expressed or natural sequence; listed as Homo sapiens) | 0.83 log2 | −0.27 log2 | 1.24 log2 | 0.68 log2 | 0.01 log2 | 8.50 log2 | 9.33 log2 | 9.06 log2 | 9.74 log2 | 2.36 log2 | 0.05 log2 | 0.05 log2 | 2.55 log2 | 0.15 log2 | 0.15 log2 | 7.62 log2 | 9.98 log2 | 10.03 log2 | 10.17 log2 | −0.80 | Intensity of the level of expression in log2 in basal cells (323(+)) [3]: 8.76 log2; Intensity of the level of expression in log2 in pyramidal cells (323(−)) [3]: 7.96 log2
hsa-miR-30c: human miRNA, SEQ ID No. 34 (UGUAAACAUCCUACACUCUCAGC; expressed or natural sequence; listed as Homo sapiens) | 0.32 log2 | −0.33 log2 | −0.40 log2 | −0.39 log2 | 10.87 log2 | 0.42 log2 | 0.73 log2 | 0.41 log2 | 0.01 log2 | 1.97 log2 | −0.34 log2 | −0.34 log2 | 1.51 log2 | −0.12 log2 | −0.12 log2 | 7.80 log2 | 9.77 log2 | 9.43 log2 | 9.31 log2 | −1.01 | Intensity of the level of expression in log2 in basal cells (323(+)) [3]: 6.92 log2; Intensity of the level of expression in log2 in pyramidal cells (323(−)) [3]: 5.91 log2
hsa-miR-30d: human miRNA, SEQ ID No. 35 (UGUAAACAUCCCCGACUGGAAG; expressed or natural sequence; listed as Homo sapiens) | 0.64 log2 | −0.09 log2 | 1.75 log2 | 1.20 log2 | 8.76 log2 | 9.12 log2 | 9.76 log2 | 9.67 log2 | 10.87 log2 | 1.88 log2 | −0.06 log2 | −0.06 log2 | 1.86 log2 | 0.05 log2 | 0.05 log2 | 7.06 log2 | 8.94 log2 | 8.88 log2 | 8.92 log2 | −1.11 | Intensity of the level of expression in log2 in basal cells (323(+)) [3]: 8.16 log2; Intensity of the level of expression in log2 in pyramidal cells (323(−)) [3]: 7.05 log2
hsa-miR-30e: human miRNA, SEQ ID No. 36 (UGUAAACAUCCUUGACUGGAAG; expressed or natural sequence; listed as Homo sapiens) | 1.27 log2 | −0.02 log2 | 1.71 log2 | 0.46 log2 | 12.74 log2 | 7.04 log2 | 8.31 log2 | 8.30 log2 | 8.76 log2 | 2.76 log2 | −0.25 log2 | −0.25 log2 | 2.38 log2 | −0.13 log2 | −0.13 log2 | 6.73 log2 | 9.50 log2 | 9.25 log2 | 9.12 log2 | −1.60 | Intensity of the level of expression in log2 in basal cells (323(+)) [3]: 6.94 log2; Intensity of the level of expression in log2 in pyramidal cells (323(−)) [3]: 5.34 log2
hsa-miR-34a: human miRNA, SEQ ID No. 38 (UGGCAGUGUCUUAGCUGGUUGU; expressed or natural sequence; listed as Homo sapiens) | 1.46 log2 | −1.04 log2 | 0.88 log2 | 0.45 log2 | 13.75 log2 | 10.31 log2 | 11.77 log2 | 10.73 log2 | 11.18 log2 | 2.31 log2 | −0.54 log2 | −0.54 log2 | 1.91 log2 | 0.13 log2 | 0.13 log2 | 8.58 log2 | 10.89 log2 | 10.35 log2 | 10.49 log2 | 0.64 | Intensity of the level of expression in log2 in basal cells (323(+)) [3]: 6.72 log2; Intensity of the level of expression in log2 in pyramidal cells (323(−)) [3]: 7.36 log2
